Biological target: T1, glutaminase (GAC) (Homo sapiens, UniProt O94925)
T1 sequence (O94925 55-598 isoform O94925-3 limits assumed): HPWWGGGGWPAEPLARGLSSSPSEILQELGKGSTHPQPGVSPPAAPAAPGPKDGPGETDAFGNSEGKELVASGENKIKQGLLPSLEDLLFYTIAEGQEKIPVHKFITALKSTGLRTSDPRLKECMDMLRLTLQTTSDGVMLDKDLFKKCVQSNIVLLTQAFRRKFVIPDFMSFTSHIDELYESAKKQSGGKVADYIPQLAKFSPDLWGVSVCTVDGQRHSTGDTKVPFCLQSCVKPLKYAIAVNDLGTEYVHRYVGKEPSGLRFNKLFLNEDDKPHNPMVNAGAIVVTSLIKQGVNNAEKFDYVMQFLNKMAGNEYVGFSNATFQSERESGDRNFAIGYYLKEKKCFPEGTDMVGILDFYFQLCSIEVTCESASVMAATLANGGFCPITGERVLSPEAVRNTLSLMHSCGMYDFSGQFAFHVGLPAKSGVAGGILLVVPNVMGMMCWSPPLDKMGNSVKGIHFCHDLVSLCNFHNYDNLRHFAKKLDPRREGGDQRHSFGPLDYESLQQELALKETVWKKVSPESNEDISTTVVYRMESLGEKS
Experiment: glutaminase coupled endpoint assay (Example A)
Type: biochemical
Conditions: inhibition of glutaminase; IC50 tested in an assay of Example A or Example B
Experimental: In this example, the enzymatic activity of glutaminase is measured through a coupled endpoint assay. […] The glutamate produced is converted to 2-OG by a kinetic excess of glutamate dehydrogenase. […] However, a kinetic excess of the third coupling enzyme, diaphorase, recycles NAD from NADH to keep the NAD concentration constant during the timecourse of the assay. Diaphorase, also supplied in kinetic excess, oxidizes NADH produced by GDH back to NAD with the concomitant reduction of rezasurin to the highly fluorescent resorufin. […] A reduction in the signal indicates inhibition of some component of the coupled enzyme system. Prospective hits are counterscreened against GDH/diaphorase alone to remove hits to the coupling enzyme system in a second assay.
2. […] Add 1 μl a compound in 100% DMSO 2. Add 40 μl of Enzyme Mix and incubate for 60 minute at room temperature 3. Add 10 μl of Substrate Mix to start reaction 4.

`COc1ccc(CC(=O)Nc2nnc(CCS(=O)(=O)CCc3nnc(NC(=O)Cc4ccc(OC)cc4)s3)s2)cc1` [Compound 31, N,N′-(5,5′-(2,2′-sulfonylbis(ethane-2,1-diyl))bis(1,3,4-thiadiazole-5,2-diyl))bis(2-(4-methoxyphenyl)acetamide)] and `NCCCOc1ccc(CC(=O)Nc2nnc(CCS(=O)(=O)CCc3nnc(NC(=O)Cc4ccccc4)s3)s2)cc1` [Compound 36, 2-(4-(3-aminopropoxy)phenyl)-N-(5-(2-((2-(5-(2-phenylacetamido)-1,3,4-thiadiazol-2-yl)ethyl)sulfonyl)ethyl)-1,3,4-thiadiazol-2-yl)acetamide] cannot be ordered by IC50: less than 100 nM for the first, less than 100 nM for the second.

Compared with `CC(=O)Oc1cccc(C(=O)Nc2nnc(CCCCc3nnc(NC(=O)c4cccc(OC(C)=O)c4C)s3)s2)c1C` [Compound 58], `COc1ccccc1OCC(=O)Nc1nnc(CCCCc2nnc(NC(=O)COc3ccccc3OC)s2)s1` [Compound 74] is lower in IC50: 1000 to 10000 nM for the first, 100 to 500 nM for the second. The second is the more potent here.

`CN(CC(=O)Nc1nnc(CCCCc2nnc(NC(=O)CN(C)C(=O)OC(C)(C)C)s2)s1)C(=O)OC(C)(C)C` [Compound 46, Di-tert-butyl 2,2′-(5,5′-(butane-1,4-diyl)bis(1,3,4-thiadiazole-5,2-diyl))bis(azanediyl)bis(2-oxoethane-2,1-diyl)bis(methylcarbamate)] and `O=C(Cc1nn[nH]n1)Nc1nnc(CCCCc2nnc(NC(=O)Cc3nn[nH]n3)s2)s1` [Compound 71, N,N′-(5,5′-(butane-1,4-diyl)bis(1,3,4-thiadiazole-5,2-diyl))bis(2-(1H-tetrazol-5-yl)acetamide)] fall in the same range of IC50: 100 to 500 nM for the first, 100 to 500 nM for the second.

First: CNC(=O)c1nnc(CCSCCc2nnc(C(=O)NC)s2)s1 [Compound 77]
Second: Cc1nc2ccc(C(=O)Nc3nnc(CCSCCc4nnc(NC(=O)c5ccc6nc(C)[nH]c6c5)s4)s3)cc2[nH]1 [Compound 34, N,N′-(5,5′-(2,2′-thiobis(ethane-2,1-diyl))bis(1,3,4-thiadiazole-5,2-diyl))bis(2-methyl-1H-benzo[d]imidazole-6-carboxamide)]
The IC50 of the first is higher: 1000 to 10000 nM for the first, less than 100 nM for the second.

`O=C(Cc1ccc(F)c(F)c1)Nc1nnc(CCCCc2nnc(NC(=O)Cc3ccc(F)c(F)c3)s2)s1` [Compound 83, N,N′-(5,5′-(butane-1,4-diyl)bis(1,3,4-thiadiazole-5,2-diyl))bis(2-(3,4-difluorophenyl)acetamide)] and `O=C(Cc1cccnc1)Nc1nnc(CCCCc2nnc(NC(=O)Cc3cccnc3)s2)s1` [Compound 28, N,N′-(5,5′-(butane-1,4-diyl)bis(1,3,4-thiadiazole-5,2-diyl))bis(2-(pyridin-3-yl)acetamide)] cannot be ordered by IC50: less than 100 nM for the first, less than 100 nM for the second.

First: O=C(CCc1ccccc1O)Nc1nnc(CCCCc2nnc(NC(=O)CCc3ccccc3O)s2)s1 [Compound 45]
Second: O=C(CCc1ccccc1)Nc1nnc(CCCCCc2nnc(NC(=O)CCc3ccccc3)s2)s1 [Compound 20, N,N′-(5,5′-(pentane-1,5-diyl)bis(1,3,4-thiadiazole-5,2-diyl))bis(3-phenylpropanamide)]
The IC50 of the first is lower: less than 100 nM for the first, 1000 to 10000 nM for the second. The first is the more potent here.

First: COc1cccc(CCC(=O)Nc2nnc(CCCCc3nnc(NC(=O)CCc4cccc(OC)c4)s3)s2)c1 [Compound 53, N,N′-(5,5′-(butane-1,4-diyl)bis(1,3,4-thiadiazole-5,2-diyl))bis(3-(3-methoxyphenyl)propanamide)]
Second: O=C(CCCc1ccccc1)Nc1nnc(CCCCc2nnc(NC(=O)CCCc3ccccc3)s2)s1 [Compound 82, N,N′-(5,5′-(butane-1,4-diyl)bis(1,3,4-thiadiazole-5,2-diyl))bis(4-phenylbutanamide)]
The IC50 of the first is lower: less than 100 nM for the first, 100 to 500 nM for the second. The first is the more potent here.

First: CC(C)(C(=O)Nc1nnc(CCCCc2nnc(NC(=O)C(C)(C)c3ccccc3)s2)s1)c1ccccc1 [Compound 88, N,N′-(5,5′-(butane-1,4-diyl)bis(1,3,4-thiadiazole-5,2-diyl))bis(2-methyl-2-phenylpropanamide)]
Second: O=C(Cc1ccccc1)Nc1nnc(CCCCCCc2nnc(NC(=O)Cc3ccccc3)s2)s1 [Compound 12, N,N′-(5,5′-(hexane-1,6-diyl)bis(1,3,4-thiadiazole-5,2-diyl))bis(2-phenylacetamide)]
The IC50 of the first is lower: 500 to 1000 nM for the first, 1000 to 10000 nM for the second. The first is the more potent here.

First: O=C(Cc1ccccc1)Nc1nnc(CCS(=O)(=O)CCc2nnc(NC(=O)Cc3ccccc3)s2)s1 [Compound 4, N,N′-(5,5′-(sulfonylbis(ethane-2,1-diyl))bis(1,3,4-thiadiazole-5,2-diyl))bis(2-phenylacetamide)]
Second: O=C(Cc1ccccc1)Nc1nnc(CC[S+]([O-])CCc2nnc(NC(=O)Cc3ccccc3)s2)s1 [Compound 7, N,N′-(5,5′-(sulfinylbis(ethane-2,1-diyl))bis(1,3,4-thiadiazole-5,2-diyl))bis(2-phenyl Acetamide)]
The IC50 of the first is lower: less than 100 nM for the first, 100 to 500 nM for the second. The first is the more potent here.

First: O=C(Nc1nnc(CCCCc2nnc(NC(=O)C3CCCCC3)s2)s1)C1CCCCC1 [Compound 90, N,N′-(5,5′-(butane-1,4-diyl)bis(1,3,4-thiadiazole-5,2-diyl))dicyclohexanecarboxamide]
Second: O=C(Nc1nnc(CCCCc2nnc(NC(=O)C3CCC3)s2)s1)C1CCC1 [Compound 102, N,N′-(5,5′-(butane-1,4-diyl)bis(1,3,4-thiadiazole-5,2-diyl))dicyclobutanecarboxamide]
The IC50 of the first is lower: 100 to 500 nM for the first, 500 to 1000 nM for the second. The first is the more potent here.

Compared with `O=C(Cc1cccc2ccccc12)Nc1nnc(CCCCc2nnc(NC(=O)Cc3cccc4ccccc34)s2)s1` [Compound 51, N,N′-(5,5′-(butane-1,4-diyl)bis(1,3,4-thiadiazole-5,2-diyl))bis(2-(naphthalen-1-yl)acetamide)], `O=C(Cc1c[nH]c2ccccc12)Nc1nnc(CCCCc2nnc(NC(=O)Cc3c[nH]c4ccccc34)s2)s1` [Compound 87, N,N′-(5,5′-(butane-1,4-diyl)bis(1,3,4-thiadiazole-5,2-diyl))bis(2-(1H-indol-3-yl)acetamide)] is lower in IC50: 100 to 500 nM for the first, less than 100 nM for the second.

First: Nc1nnc(CCCCc2nnc(NC(=O)CCc3ccccc3O)s2)s1 [Compound 44]
Second: COc1ccc2[nH]cc(CC(=O)Nc3nnc(CCCCc4nnc(NC(C)=O)s4)s3)c2c1 [Compound 129]
The IC50 of the first is higher: 1000 to 10000 nM for the first, less than 100 nM for the second.

Compared with `CN(C(=O)Cc1ccccc1)c1nnc(CCCCc2nnc(N(C)C(=O)Cc3ccccc3)s2)s1` [Compound 97], `O=C(Cc1ccccc1)Nc1nnc(CCCSCc2nnc(NC(=O)Cc3ccccc3)s2)s1` [Compound 6, 2-Phenyl-N-(5-(3-(((5-(2-phenylacetamido)-1,3,4-thiadiazol-2-yl)methyl)thio)propyl)-1,3,4-thiadiazol-2-yl)acetamide] is lower in IC50: 1000 to 10000 nM for the first, 500 to 1000 nM for the second.

First: CC(CC(=O)c1ccccc1)C(=O)Nc1nnc(CCCCc2nnc(NC(=O)C(C)CC(=O)c3ccccc3)s2)s1 (stereo not drawn) [Compound 62, N,N′-(5,5′-(butane-1,4-diyl)bis(1,3,4-thiadiazole-5,2-diyl))bis(2-methyl-4-oxo-4-phenylbutanamide)]
Second: O=C(Nc1nnc(CCCCc2nnc(NC(=O)C3(c4ccccc4)CC3)s2)s1)C1(c2ccccc2)CC1 [Compound 84]
The IC50 of the first is lower: 100 to 500 nM for the first, 1000 to 10000 nM for the second. The first is the more potent here.

First: CC(C(=O)Nc1nnc(CCCCc2nnc(NC(=O)C(C)c3ccc(Cl)cc3)s2)s1)c1ccc(Cl)cc1 (stereo not drawn) [Compound 52, N,N′-(5,5′-(butane-1,4-diyl)bis(1,3,4-thiadiazole-5,2-diyl))bis(2-(4-chlorophenyl)propanamide)]
Second: Cn1cc(CC(=O)Nc2nnc(CCCCc3nnc(NC(=O)Cc4cn(C)c5ccccc45)s3)s2)c2ccccc21 [Compound 130, N,N′-(5,5′-(butane-1,4-diyl)bis(1,3,4-thiadiazole-5,2-diyl))bis(2-(1-methyl-1H-indol-3-yl)acetamide)]
The IC50 of the first is higher: 100 to 500 nM for the first, less than 100 nM for the second. The second is the more potent here.

First: O=C(Cc1cccnc1)Nc1nnc(C/C=C/Cc2nnc(NC(=O)Cc3cccnc3)s2)s1 [Compound 27, (E)-N,N′-(5,5′-(but-2-ene-1,4-diyl)bis(1,3,4-thiadiazole-5,2-diyl))bis(2-(pyridin-3-yl)acetamide)]
Second: O=C(Cc1ccccn1)Nc1nnc(CC/C=C/CCc2nnc(NC(=O)Cc3ccccn3)s2)s1 [Compound 25]
The IC50 of the first is lower: less than 100 nM for the first, 1000 to 10000 nM for the second.

`O=C(Cc1ccccn1)Nc1nnc(CCSCc2nnc(NC(=O)Cc3ccccn3)s2)s1` [Compound 57] and `O=C(Cc1n[nH]c2ccccc12)Nc1nnc(CCCCc2nnc(NC(=O)Cc3n[nH]c4ccccc34)s2)s1` [Compound 126, N,N′-(5,5′-(butane-1,4-diyl)bis(1,3,4-thiadiazole-5,2-diyl))bis(2-(1H-indazol-3-yl)acetamide)] cannot be ordered by IC50: less than 100 nM for the first, less than 100 nM for the second.

`O=C(Nc1nnc(CCCCc2nnc(NC(=O)C3CC=CC3)s2)s1)C1CC=CC1` [Compound 64, N,N′-(5,5′-(butane-1,4-diyl)bis(1,3,4-thiadiazole-5,2-diyl))dicyclopent-3-enecarboxamide] and `O=C(CC1CCCCO1)Nc1nnc(CCS(=O)(=O)CCc2nnc(NC(=O)CC3CCCCO3)s2)s1` (stereo not drawn) [Compound 33, N,N′-(5,5′-(2,2′-sulfonylbis(ethane-2,1-diyl))bis(1,3,4-thiadiazole-5,2-diyl))bis(2-(tetrahydro-2H-pyran-2-yl)acetamide)] fall in the same range of IC50: 100 to 500 nM for the first, 100 to 500 nM for the second.

From US10414740B2, “Glutaminase inhibitors and method of use” (Agios Pharmaceuticals, Inc., priority 2012, dated 2019)
